Patent publication US12029751B2, “Therapeutic agent for nervous system disease” (OSAKA UNIVERSITY, priority 2017, dated 2024)

Assays:
[1] = tested on: Mouse macrophage cell line J774A.1; assay: Immunohistological evaluation of iNOS-positive (M1) and Arg1-positive (M2) macrophages; assay type: cell-based; settings: for percentage of M2 macrophages (percentage of Arg1-positive cells): 72 hours; for percentage of M1 macrophages (percentage of iNOS-positive cells): 24 hours
Protocol: Mouse macrophage cell line J774A.1 (JCRB9108) was purchased from JCRB Cell Bank (Laboratory of Cell Cultures), Osaka, Japan. Cells were cultured in DMEM containing 10% FBS and 1% penicillin/streptomycin.
The J774A.1 cells (Example 5-1) were seeded on a dish having a diameter of 6 cm. After 4 days, cells were fixed with 4% PFA for 20 minutes. Blocking was performed for 30 minutes, and the cells were allowed to react with primary antibodies at 4° C. overnight. The cells were further allowed to react with a secondary antibody at room temperature for 1 hour so that the nuclei were labeled with DAPI. To detect the M1 marker iNOS, LPS (100 ng/ml) and methylcobalamin were added at 24 hours before fixing the cells. To detect the M2 marker Arg1, IL-4 (20 ng/ml) and methylcobalamin were added at 72 hours before fixing the cells.
The primary antibodies used were a rabbit anti-iNOS monoclonal antibody (Abeam) and a rabbit anti-Arg1 polyclonal antibody (Santa Cruz). The secondary antibody used was an Alexa 488-labeled goat anti-rabbit IgG antibody (Life Technologies) or an Alexa 568-labeled goat anti-rabbit IgG antibody (Life Technologies).

[2] = tested on: cerebral cortical neurons; assay: TUNEL assay, apoptosis inhibiting effect on cerebral cortical neurons; assay type: cell-based, rat; settings: after 18 hours
Text: Cerebral cortical neurons were collected and cultured by a conventional method. Cerebral cortex was dissected from a fetus of a Sprague-Dawley (SD) rat (18th day of pregnancy) and recovered in ice-cooled Dulbecco's Modified Eagle Medium (DMEM) containing 10% fetal bovine serum (FBS) and 1% penicillin/streptomycin. The pia mater and blood vessels were removed, and the remaining cerebral cortex was transferred to DMEM (containing 1% penicillin/streptomycin and no FBS) and cut into small pieces having a size of 1 mm by surgical scissors. Papain (final concentration, 2 mg/ml) was added to the cell mixture, and the mixture was allowed to react at 37° C. for 30 minutes. DNase I (70 U/ml) was added to the reaction mixture and reaction was carried out for 30 seconds. Then, DMEM containing 10% FBS and 1% penicillin/streptomycin was added to terminate the reaction. The cell mixture was centrifuged at 800 rpm, the residue was re-suspended in DMEM containing 10% FBS and 1% penicillin/streptomycin, and the suspension was seeded on a dish coated with poly-L lysine (PLL). At 4 hours after the cell seeding, the medium was replaced with Neurobasal medium (containing 10% B27 supplement and 1% penicillin/streptomycin).
To the cerebral cortical neurons (Example 1-1) cultured on a PLL-coated 8-well chamber slide, 20 mM glutamic acid and […] methylcobalamin (MeCbl) were added. After 18 hours, the proportion of apoptotic cells was evaluated using Promega's DeadEnd Fluorometric TUNEL System. Cells were fixed with 4% paraformaldehyde (PFA) at 4° C. for 25 minutes. After cells were permeabilized with 0.2% Triton X-100 for 5 minutes, an incubation buffer was added, and the mixture was left stand at 37° C. with light shielding for 60 minutes to label the permeabilized cells. The nuclei were labeled with 4′6-diamidino-2-phenylindole (DAPI). The total cell number and the number of TUNEL-positive cells were determined.

## C/C1=C2/[N-][C@H]([C@H](CC(N)=O)[C@@]2(C)CCC(=O)NC[C@@H](C)OP(=O)([O-])O[C@H]2[C@@H](O)[C@@H](n3cnc4cc(C)c(C)cc43)O[C@@H]2CO)[C@]2(C)N=C(/C(C)=C3N=C(/C=C4N=C1[C@@H](CCC(N)=O)C\4(C)C)[C@@H](CCC(N)=O)[C@]\3(C)CC(N)=O)[C@@H](CCC(N)=O)[C@]2(C)CC(N)=O.[CH3-].[Co+3] [MeCbl, methylcobalamin]
[1]; IL-4 20 ng/ml + MeCbl 1 nM
  percentage of M2 macrophages (percentage of Arg1-positive cells): 10.90%
[1]; IL-4 20 ng/ml + MeCbl 10 nM
  percentage of M2 macrophages (percentage of Arg1-positive cells): 18.57%
[1]; IL-4 20 ng/ml + MeCbl 100 nM
  percentage of M2 macrophages (percentage of Arg1-positive cells): 18.95%
[1]; IL-4 20 ng/ml + MeCbl 1 μM
  percentage of M2 macrophages (percentage of Arg1-positive cells): 19.32%
[1]; IL-4 20 ng/ml + MeCbl 10 μM
  percentage of M2 macrophages (percentage of Arg1-positive cells): 15.24%
[1]; IL-4 20 ng/ml + MeCbl 100 μM
  percentage of M2 macrophages (percentage of Arg1-positive cells): 10.61%
[1]; IL-4 20 ng/ml + MeCbl 1 mM
  percentage of M2 macrophages (percentage of Arg1-positive cells): 9.49%
[1]; IL-4 + 10 nM to 1 μM methylcobalamin
  proportion of cells positive for the M2 marker Arg1 as compared to IL-4 alone: significantly increased
[1]; LPS 100 ng/ml + MeCbl 1 nM
  percentage of M1 macrophages (percentage of iNOS-positive cells): 16.64%
[1]; LPS 100 ng/ml + MeCbl 10 nM
  percentage of M1 macrophages (percentage of iNOS-positive cells): 9.57%
[1]; LPS 100 ng/ml + MeCbl 100 nM
  percentage of M1 macrophages (percentage of iNOS-positive cells): 7.26%
[1]; LPS 100 ng/ml + MeCbl 1 μM
  percentage of M1 macrophages (percentage of iNOS-positive cells): 3.42%
[1]; LPS 100 ng/ml + MeCbl 10 μM
  percentage of M1 macrophages (percentage of iNOS-positive cells): 11.45%
[1]; LPS 100 ng/ml + MeCbl 100 μM
  percentage of M1 macrophages (percentage of iNOS-positive cells): 10.34%
[1]; LPS 100 ng/ml + MeCbl 1 mM
  percentage of M1 macrophages (percentage of iNOS-positive cells): 17.57%
[1]; LPS + 10 nM to 100 μM methylcobalamin
  proportion of cells positive for the M1 marker iNOS as compared with LPS alone: significantly decreased
[1]; immunofluorescent staining
  methylcobalamin concentration at peak of switch from M1 to M2: around 100 nM
[2]; 20 mM glutamic acid + methylcobalamin
  proportion of apoptotic cells: 5.6%
[2]; 20 mM glutamic acid + methylcobalamin, listed as methylcobalamin
  proportion of apoptotic cells: significantly decreased to the level of the control
[2]; MeCbl alone (Glutamate −), methylcobalamin
  proportion of apoptotic cells: 5.9%
